Reference: article PMC9297976 (Journal of Applied Toxicology, 2021)
pEC50: −log10 of the molar value.

Experiments:
medaka Esr1 (mEsr1) [1] = molecular target: T1, medaka Esr1 (mEsr1) (Oryzias latipes, UniProt P50241); test: cell-based; set-up: species or system Japanese medaka (Oryzias latipes)
T1 sequence (P50241 1-620): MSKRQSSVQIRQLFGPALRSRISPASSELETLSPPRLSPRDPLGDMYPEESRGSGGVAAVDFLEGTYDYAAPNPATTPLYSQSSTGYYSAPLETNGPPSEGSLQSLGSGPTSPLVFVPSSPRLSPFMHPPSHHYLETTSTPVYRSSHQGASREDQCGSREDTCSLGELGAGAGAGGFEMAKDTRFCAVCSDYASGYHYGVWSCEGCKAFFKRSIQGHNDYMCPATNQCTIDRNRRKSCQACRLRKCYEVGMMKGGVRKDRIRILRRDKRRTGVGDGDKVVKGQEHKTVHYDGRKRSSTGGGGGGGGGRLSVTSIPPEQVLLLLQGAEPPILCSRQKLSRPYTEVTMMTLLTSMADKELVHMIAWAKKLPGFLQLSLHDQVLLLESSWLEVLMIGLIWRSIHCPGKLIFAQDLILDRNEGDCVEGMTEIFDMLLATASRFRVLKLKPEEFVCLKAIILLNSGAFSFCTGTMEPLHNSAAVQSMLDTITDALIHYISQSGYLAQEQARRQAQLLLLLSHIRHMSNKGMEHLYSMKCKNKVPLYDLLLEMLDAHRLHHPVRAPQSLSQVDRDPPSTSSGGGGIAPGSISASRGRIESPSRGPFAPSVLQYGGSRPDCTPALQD

medaka Esr1 (mEsr1) [2] = molecular target: T1, medaka Esr1 (mEsr1); test: Medaka Esr1 reporter gene assay, antagonist assay; type: cell-based, Japanese medaka (Oryzias latipes); details: E2 spiked at 1.0 nM (B); MAC = 1.0 × 10^−5 M
medaka ARβ (mArβ) [3] = molecular target: T2, medaka ARβ (mArβ) (Oryzias latipes, UniProt D1MV73); test: Medaka ARβ reporter gene assay, antagonist assay; type: cell-based, Japanese medaka (Oryzias latipes)
T2 sequence (D1MV73 1-744): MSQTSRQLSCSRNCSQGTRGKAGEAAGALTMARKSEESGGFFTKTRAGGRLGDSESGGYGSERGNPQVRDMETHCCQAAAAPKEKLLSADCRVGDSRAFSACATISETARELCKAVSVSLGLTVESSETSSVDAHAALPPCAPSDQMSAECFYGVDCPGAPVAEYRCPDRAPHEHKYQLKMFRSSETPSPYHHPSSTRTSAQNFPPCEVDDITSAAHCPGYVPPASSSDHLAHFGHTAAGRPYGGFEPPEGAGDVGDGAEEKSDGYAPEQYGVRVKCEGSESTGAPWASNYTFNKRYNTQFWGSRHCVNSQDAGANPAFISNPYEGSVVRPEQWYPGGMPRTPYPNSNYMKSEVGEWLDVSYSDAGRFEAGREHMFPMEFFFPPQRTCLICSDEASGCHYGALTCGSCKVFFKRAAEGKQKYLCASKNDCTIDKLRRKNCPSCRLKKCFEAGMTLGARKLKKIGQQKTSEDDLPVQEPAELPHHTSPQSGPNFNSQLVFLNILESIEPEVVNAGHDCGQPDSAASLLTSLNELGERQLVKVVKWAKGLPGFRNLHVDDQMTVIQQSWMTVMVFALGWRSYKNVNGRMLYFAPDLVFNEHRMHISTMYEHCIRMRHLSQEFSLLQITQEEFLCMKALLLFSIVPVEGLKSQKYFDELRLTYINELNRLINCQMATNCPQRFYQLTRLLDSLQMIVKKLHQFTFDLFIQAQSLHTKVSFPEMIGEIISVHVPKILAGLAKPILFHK

medaka ARβ (mArβ) [4] = molecular target: T2, medaka ARβ (mArβ); test: Medaka ARβ reporter gene assay, agonist assay; type: cell-based, Japanese medaka (Oryzias latipes)
[5] = tested on: Japanese medaka (Oryzias latipes); test: Fish Short‐Term Reproduction Assay; type: in vivo; details: for GSI Female / GSI Male / HSI Female / HSI Male / Length Female / Length Male / Weight Female / Weight Male: completion of exposure
[6] = measured concentration 25.3 μg/L
[7] = measured concentration 82.3 μg/L
[8] = measured concentration 250 μg/L

Oc1cccc2ccccc12 [Chemical 1NT, 1‐Naphtol]
In vitro positive: Esr (medaka Esr1 (mEsr1) [1]; mode of action in which EC50 or PC10 was obtained in RGA): Esr | pEC50 (medaka Esr1 (mEsr1) [1]; read-out: Agonistic activity EC50, HEK293 cells): 4.11 | Antagonistic activity (medaka Esr1 (mEsr1) [2]): NE (MAC = 1.0 × 10^−5 M)^(B) | Antagonistic activity (medaka ARβ (mArβ) [3]; 11‐KT spiked at 10 nM (C), MAC = 1.0 × 10^−4 M): NE (MAC = 1.0 × 10^−4 M)^(C) | Agonistic activity PC10 (medaka ARβ (mArβ) [4]; HepG2 cells, concentration with 10% of maximum activity of 11KT): PC10 = 3.3 × 10^−5 M | Agonistic activity on mArβ (in words) (medaka ARβ (mArβ) [4]; only PC10 and not EC50 could be estimated): positive agonistic activity

CC(C)(C)CC(C)(C)c1ccc(O)cc1 [Chemical 4tOP, 4‐tert‐Octylphenol]
Fertility rate ([5]; 25.3 μg/L measured, 21 d): 91 ± 5.1% | Hepatic VTG, female ([5]; 25.3 μg/L measured, 21 d): 3,710 ± 617 ng/mg‐liver | Hepatic VTG, male ([5]; 25.3 μg/L measured, 21 d): 3.2 ± 2.2 ng/mg‐liver | Mortality ([5]; 25.3 μg/L measured, 21 d): 0.0% | Mortality, number of dead fish ([5]; 25.3 μg/L measured, 21 d): 0 | Number of fertilized eggs (per female per day) ([5]; 25.3 μg/L measured, 21 d): 24 ± 3.5 | Number of total eggs (per female per day) ([5]; 25.3 μg/L measured, 21 d): 26 ± 3.2 | SSC female (joint plates with papillary processes) ([5]; 25.3 μg/L measured, 21 d): 0 ± 0 | SSC male (joint plates with papillary processes) ([5]; 25.3 μg/L measured, 21 d): 99 ± 4.1 | Fertility rate ([5]; 82.3 μg/L measured, 21 d): 92 ± 2.1% | Hepatic VTG, female ([5]; 82.3 μg/L measured, 21 d): 4,380 ± 1,350 ng/mg‐liver | Mortality ([5]; 82.3 μg/L measured, 21 d): 4.2% | Mortality, number of dead fish ([5]; 82.3 μg/L measured, 21 d): 1 | Number of fertilized eggs (per female per day) ([5]; 82.3 μg/L measured, 21 d): 24 ± 1.5 | Number of total eggs (per female per day) ([5]; 82.3 μg/L measured, 21 d): 27 ± 1.3 | SSC female (joint plates with papillary processes) ([5]; 82.3 μg/L measured, 21 d): 0 ± 0 | Hepatic VTG, male ([5]; 82.3 μg/L measured, 21 d, sig. ↑ vs control): 5.6 ± 1.9 ng/mg‐liver | Fertility rate ([5]; 250 μg/L measured, 21 d): 89 ± 3.3% | Hepatic VTG, female ([5]; 250 μg/L measured, 21 d): 5,290 ± 2030 ng/mg‐liver | Mortality ([5]; 250 μg/L measured, 21 d): 0.0% | Mortality, number of dead fish ([5]; 250 μg/L measured, 21 d): 0 | Number of fertilized eggs (per female per day) ([5]; 250 μg/L measured, 21 d): 21 ± 2.6 | Number of total eggs (per female per day) ([5]; 250 μg/L measured, 21 d): 23 ± 2.6 | SSC female (joint plates with papillary processes) ([5]; 250 μg/L measured, 21 d): 0 ± 0 | SSC male (joint plates with papillary processes) ([5]; 250 μg/L measured, 21 d): 98 ± 8.5 | LOEC, elevated hepatic VTG in males ([5]; 21 d): 82.3 µg/L | LOECREPRO ([5]; LOEC on reproduction (fecundity and/or fertility)): ND (>250) μg/L | minimal effective concentration ([5]; Oryzias latipes, 504 h, read-out: LOECmVTG): 0.0823 µg/mL | LOECTOX ([5]; lowest observed effect concentration on mortality): ND (>250) μg/L | GSI Female [5, 6]: 11.4 ± 1.6% | GSI Male [5, 6]: 0.83 ± 0.11% | HSI Female [5, 6]: 4.6 ± 0.82% | HSI Male [5, 6]: 2.1 ± 0.16% | Length Female [5, 6]: 37.8 ± 0.5 mm | Length Male [5, 6]: 37.0 ± 0.9 mm | Weight Female [5, 6]: 625 ± 55 mg | Weight Male [5, 6]: 608 ± 31 mg | GSI Female [5, 7]: 10.7 ± 0.4% | GSI Male [5, 7]: 0.81 ± 0.08% | HSI Female [5, 7]: 4.1 ± 0.58% | HSI Male [5, 7]: 2.6 ± 0.10% | Length Female [5, 7]: 37.0 ± 0.2 mm | Length Male [5, 7]: 37.9 ± 0.6 mm | Weight Female [5, 7]: 599 ± 16 mg | Weight Male [5, 7]: 630 ± 44 mg | GSI Female [5, 8]: 11.1 ± 2.0% | GSI Male [5, 8]: 0.81 ± 0.08% | HSI Female [5, 8]: 4.5 ± 0.29% | HSI Male [5, 8]: 2.9 ± 0.28% | Length Female [5, 8]: 36.7 ± 0.5 mm | Length Male [5, 8]: 37.4 ± 0.4 mm | Weight Female [5, 8]: 605 ± 10 mg | Weight Male [5, 8]: 626 ± 21 mg | Antagonistic activity (medaka ARβ (mArβ) [3]; 11‐KT spiked at 50 nM (D), MAC = 1.0 × 10^−5 M): NE (MAC = 1.0 × 10^−5 M)^(D) | Agonistic activity (medaka ARβ (mArβ) [4]; MAC = 1.0 × 10^−5 M): NE (MAC = 1.0 × 10^−5 M)
